Drawing on patent US9125922B2, “Phosphate esters of gyrase and topoisomerase inhibitors” (priority 2011, dated 2015), this text covers Ki and solubility for 4 compounds.

One may read the Ki as a dissociation constant, usually derived from enzyme kinetics or from competition with a known ligand. In general, solubility refers to the concentration that dissolves in the medium under given conditions.

Each structure is given as a SMILES string. Like-named read-outs stand apart in the source and are kept apart here. Bounds are passed on as bounds.

The target in one data set is S. aureus DNA gyrase (Staphylococcus aureus, UniProt P0A0K8). The data set is described as follows: DNA Gyrase ATPase Assay. It counts as biochemical. The settings on record: coupled ATPase assay, 30° C., 90 nM enzyme, 0.9 mM ATP; read-out: Ki, Inhibition of S. aureus DNA Gyrase. The protocol: The ATP hydrolysis activity of S. aureus DNA gyrase was measured by coupling the production of ADP through pyruvate kinase/lactate dehydrogenase to the oxidation of NADH. This method has been described previously (Tamura and Gellert, 1990, J. Biol. Chem., 265, 21342).
ATPase assays were carried out at 30° C. in buffered solutions containing 100 mM TRIS pH 7.6, 1.5 mM MgCl2, 150 mM KCl. The coupling system contains final concentrations of 2.5 mM phosphoenol pyruvate, 200 μM nicotinamide adenine dinucleotide (NADH), 1 mM DTT, 30 ug/ml pyruvate kinase, and 10 ug/ml lactate dehydrogenase. The enzyme (90 nM final concentration) and a DMSO solution (3% final concentration) of the selected compound were added. The reaction mixture was allowed to incubate for 10 minutes at 30° C. The reaction was initiated by the addition of ATP to a final concentration of 0.9 mM, and the rate of NADH disappearance was monitored at 340 nanometers over the course of 10 minutes. The Ki values were determined from rate versus concentration profiles.

For a further data set, the target named is S. aureus TopoIV enzyme (Staphylococcus aureus, UniProt P0C1S7). The data set is described as follows: DNA Topo IV ATPase Assay. It counts as biochemical. As for the experimental part: The conversion of ATP to ADP by S. aureus TopoIV enzyme was coupled to the conversion of NADH to NAD+, and the progress of the reaction was measured by the change in absorbance at 340 nm. TopoIV (64 nM) was incubated with the selected compound (3% DMSO final) in buffer for 10 minutes at 30° C. The buffer consisted of 100 mM Tris 7.5, 1.5 mM MgCl2, 200 mM K·Glutamate, 2.5 mM phosphoenol pyruvate, 0.2 mM NADH, 1 mM DTT, 5 μg/mL linearized DNA, 50 μg/mL BSA, 30 μg/mL pyruvate kinase, and 10 μg/mL lactate dehyrodgenase (LDH). The reaction was initiated with ATP, and rates were monitored continuously for 20 minutes at 30° C. on a Molecular Devices SpectraMAX plate reader. The inhibition constant, Ki, was determined from plots of rate vs. concentration of selected compound fit to the Morrison Equation for tight binding inhibitors.

The nature of the next data set: Aqueous Solubility Study. As to conditions: aqueous buffer, thermodynamic from solid; water, pH adjusted with 1.0N HCl, stirred 96 hours at room temperature, filtered, HPLC; filtrate pH per compound (23: >3.0; X: 4.41; Y: 3.01; Z: 4.35). It counts as physicochemical. The protocol: The aqueous solubilities of compounds 23, X, Y, and Z were determined according to the following procedure.
Aqueous samples of each compound were prepared as follows. Compounds were weighed (20-30 mg compound) in 4 ml clear vials prior to adding water (0.5 mL) and stirring by magnetic stirrer. 1.0N HCl was added to the suspension to adjust the pH to the desired range. After stirring for 96 hours at room temperature, the suspension was filtered through a 0.22 micron filter (Millipore, Ultrafree centrifugal filters, Durapore PVDF 0.22 μm, Cat# UFC30GVNB). The filtrate was collected and the pH measured with a pH meter. The filtrates containing compounds X and Z were diluted 100-fold and 400-fold, respectively, to provide an appropriate concentration for HPLC analysis.
Standard solutions of each compound were prepared according to the following procedure. 1 to 2 mg of each compound was accurately weighed into a 10 mL volumetric flask and either water (for compounds X and Z), methanol (for compound Y), or 1:1 methanol:0.1N HCl (for compound 23) was added to completely dissolve the compounds. Sonication was performed for compound 23 to assist with the dissolution in 1:1 methanol:0.1N HCl. When all solids dissolved, additional solvent was added to adjust the volume of each solution to 10 ml. The resulting solutions were thoroughly mixed to give the standard solutions of each compound. Each standard solution was then diluted with solvent by 2-fold, 10-fold, and 100-fold.
Aliquots of each sample and each standard solution were analyzed by HPLC analysis (Agilent 1100, injection volume 10 μL, wavelength 271 nm, column XTerra® Phenyl 5 μm, 4.6×50 mm, Part No. 186001144, mobile phase: A: 0.1% TFA in water 0.1% TFA in AcN). Each standard solution was injected three times, and each of the samples was injected twice. Standard curves were obtained by plotting the average of the peak area from the HPLC versus the concentrations of the standard solutions (with appropriate corrections of the weights of the standards based on total water content of the solid as determined by elemental analysis). The concentration of each sample was calculated from the peak area of the aqueous sample from the HPLC results and the slope and intercept of the standard curves. The solubility values listed in Table 3 below were derived from the product of the concentration of the sample and the dilution factor of the sample.

Setting [1] is: coupled ATPase assay, 30° C., 64 nM TopoIV, Morrison Equation fit, read-out: Ki, Inhibition of S. aureus DNA Topo IV.

S. aureus TopoIV enzyme, sequence (P0C1S7 whole entry): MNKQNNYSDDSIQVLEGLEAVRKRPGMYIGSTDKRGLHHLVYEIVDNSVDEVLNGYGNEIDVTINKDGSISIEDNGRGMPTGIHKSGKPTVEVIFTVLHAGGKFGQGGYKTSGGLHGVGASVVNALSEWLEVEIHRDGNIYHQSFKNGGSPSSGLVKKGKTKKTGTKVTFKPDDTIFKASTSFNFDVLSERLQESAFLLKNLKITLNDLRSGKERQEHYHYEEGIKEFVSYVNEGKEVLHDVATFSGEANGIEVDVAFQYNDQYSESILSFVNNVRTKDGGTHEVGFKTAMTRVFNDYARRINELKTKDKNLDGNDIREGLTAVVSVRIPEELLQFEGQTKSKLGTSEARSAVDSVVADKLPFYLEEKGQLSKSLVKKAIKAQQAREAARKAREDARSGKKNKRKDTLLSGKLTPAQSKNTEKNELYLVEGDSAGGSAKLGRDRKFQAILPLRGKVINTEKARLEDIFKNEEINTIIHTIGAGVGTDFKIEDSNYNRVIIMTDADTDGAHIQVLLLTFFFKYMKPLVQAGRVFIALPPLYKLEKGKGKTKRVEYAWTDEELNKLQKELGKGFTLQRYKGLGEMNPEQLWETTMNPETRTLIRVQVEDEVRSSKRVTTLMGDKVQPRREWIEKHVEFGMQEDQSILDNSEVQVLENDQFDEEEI
S. aureus TopoIV enzyme, sequence (P0C1U9 whole entry partner): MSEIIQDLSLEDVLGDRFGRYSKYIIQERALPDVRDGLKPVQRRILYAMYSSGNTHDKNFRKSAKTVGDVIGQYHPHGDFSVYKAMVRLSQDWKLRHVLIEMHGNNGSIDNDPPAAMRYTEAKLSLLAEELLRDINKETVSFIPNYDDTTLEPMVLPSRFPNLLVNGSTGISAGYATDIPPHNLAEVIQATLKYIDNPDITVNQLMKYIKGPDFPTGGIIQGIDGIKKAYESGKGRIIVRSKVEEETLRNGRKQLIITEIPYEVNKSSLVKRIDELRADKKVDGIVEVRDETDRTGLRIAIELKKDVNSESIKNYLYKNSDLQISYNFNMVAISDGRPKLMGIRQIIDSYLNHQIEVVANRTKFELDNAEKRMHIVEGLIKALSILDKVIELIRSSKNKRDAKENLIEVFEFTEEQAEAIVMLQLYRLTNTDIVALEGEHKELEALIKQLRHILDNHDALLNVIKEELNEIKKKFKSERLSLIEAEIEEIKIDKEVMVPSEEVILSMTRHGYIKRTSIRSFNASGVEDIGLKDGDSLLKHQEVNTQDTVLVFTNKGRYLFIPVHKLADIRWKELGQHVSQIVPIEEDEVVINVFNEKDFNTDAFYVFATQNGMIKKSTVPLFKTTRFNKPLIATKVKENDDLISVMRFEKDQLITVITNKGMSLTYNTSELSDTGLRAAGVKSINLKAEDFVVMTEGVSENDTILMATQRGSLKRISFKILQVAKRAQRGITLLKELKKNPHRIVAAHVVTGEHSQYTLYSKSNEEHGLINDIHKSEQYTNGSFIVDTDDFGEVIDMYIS
S. aureus DNA gyrase, sequence (P0A0K8 whole entry): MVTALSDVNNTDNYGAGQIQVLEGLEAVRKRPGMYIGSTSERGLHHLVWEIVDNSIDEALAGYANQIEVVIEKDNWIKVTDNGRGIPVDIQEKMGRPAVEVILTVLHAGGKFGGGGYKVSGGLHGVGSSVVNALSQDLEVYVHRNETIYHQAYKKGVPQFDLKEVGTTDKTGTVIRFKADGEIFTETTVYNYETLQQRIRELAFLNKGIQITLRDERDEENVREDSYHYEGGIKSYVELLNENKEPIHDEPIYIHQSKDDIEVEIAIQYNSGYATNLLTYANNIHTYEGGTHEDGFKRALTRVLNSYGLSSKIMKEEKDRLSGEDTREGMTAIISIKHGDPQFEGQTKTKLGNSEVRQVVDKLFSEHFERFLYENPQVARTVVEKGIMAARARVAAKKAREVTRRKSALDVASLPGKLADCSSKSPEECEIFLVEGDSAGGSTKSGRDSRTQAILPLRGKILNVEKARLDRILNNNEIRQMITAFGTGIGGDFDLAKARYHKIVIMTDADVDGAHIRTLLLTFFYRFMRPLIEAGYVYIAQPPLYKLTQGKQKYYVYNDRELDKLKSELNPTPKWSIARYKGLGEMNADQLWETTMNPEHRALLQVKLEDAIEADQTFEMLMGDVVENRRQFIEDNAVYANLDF
S. aureus DNA gyrase, sequence (P20831 whole entry partner): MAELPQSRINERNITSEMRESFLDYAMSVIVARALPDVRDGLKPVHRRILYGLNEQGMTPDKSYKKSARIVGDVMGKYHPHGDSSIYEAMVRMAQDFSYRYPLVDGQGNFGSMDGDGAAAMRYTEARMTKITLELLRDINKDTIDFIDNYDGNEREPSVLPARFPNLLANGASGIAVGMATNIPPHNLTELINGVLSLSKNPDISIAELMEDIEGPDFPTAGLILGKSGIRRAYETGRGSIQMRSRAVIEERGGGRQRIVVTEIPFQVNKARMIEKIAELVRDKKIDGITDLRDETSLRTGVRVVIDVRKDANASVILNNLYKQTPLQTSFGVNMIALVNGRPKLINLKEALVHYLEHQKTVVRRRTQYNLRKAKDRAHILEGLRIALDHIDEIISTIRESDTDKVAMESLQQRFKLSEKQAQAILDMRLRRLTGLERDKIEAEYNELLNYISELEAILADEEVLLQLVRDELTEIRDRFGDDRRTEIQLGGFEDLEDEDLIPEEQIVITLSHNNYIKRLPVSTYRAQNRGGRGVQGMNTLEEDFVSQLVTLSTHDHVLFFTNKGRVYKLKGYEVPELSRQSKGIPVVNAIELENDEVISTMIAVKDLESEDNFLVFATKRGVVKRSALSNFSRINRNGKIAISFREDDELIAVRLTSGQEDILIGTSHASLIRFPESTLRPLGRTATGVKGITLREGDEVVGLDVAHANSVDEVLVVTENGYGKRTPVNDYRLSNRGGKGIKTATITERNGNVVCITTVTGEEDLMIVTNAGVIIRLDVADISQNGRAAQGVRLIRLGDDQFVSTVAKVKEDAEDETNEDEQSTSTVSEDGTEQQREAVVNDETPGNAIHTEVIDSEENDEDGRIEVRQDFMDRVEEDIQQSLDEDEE

Consider `CCNC(=O)Nc1nc2cc(-c3cnc(C(C)(C)OP(=O)(O)OCCN4CCOCC4)nc3)c(F)c([C@H]3CCCO3)c2[nH]1` [Compound Z, 2-(5-(2-(3-ethylureido)-6-fluoro-7-((R)-tetrahydrofuran-2-yl)-1H-benzo[d]imidazol-5-yl)pyrimidin-2-yl)propan-2-yl 2-morpholinoethyl hydrogen phosphate], for which the Ki was < 9 nM at S. aureus DNA gyrase and 80 nM at S. aureus TopoIV enzyme (setting [1]). Also, the solubility at 96 h in “Aqueous Solubility Study” is > 41 mg/mL.

`CCNC(=O)Nc1nc2cc(-c3cnc(C(C)(C)O)nc3)c(F)c([C@H]3CCCO3)c2[nH]1` [Compound 23, (R)-1-ethyl-3-(6-fluoro-5-(2-(2-hydroxypropan-2-yl)pyrimidin-5-yl)-7-(tetrahydrofuran-2-yl)-1H-benzo[d]imidazol-2-yl)urea]: the Ki on S. aureus TopoIV enzyme stood at 9 nM. Further, the solubility at 96 h in “Aqueous Solubility Study” is < 0.001 mg/mL.

Regarding `CCNC(=O)Nc1nc2cc(-c3cnc(C(C)(C)OP(=O)(O)OCCOCCOC)nc3)c(F)c([C@H]3CCCO3)c2[nH]1` [Compound X, ammonium (R)-2-(5-(2-(3-ethylureido)-6-fluoro-7-(tetrahydrofuran-2-yl)-1H-benzo[d]imidazol-5-yl)pyrimidin-2-yl)propan-2-yl 2-(2-methoxyethoxy)ethyl phosphate], the Ki on S. aureus DNA gyrase was < 9 nM; at S. aureus TopoIV enzyme (setting [1]), 45 nM. The solubility at 96 h in the data set “Aqueous Solubility Study” stood at 12.7 mg/mL.

For the compound `CCCCCCCCCCCCCCCCOP(=O)(O)OC(C)(C)c1ncc(-c2cc3nc(NC(=O)NCC)[nH]c3c([C@H]3CCCO3)c2F)cn1` [Compound Y, ammonium (R)-2-(5-(2-(3-ethylureido)-6-fluoro-7-(tetrahydrofuran-2-yl)-1H-benzo[d]imidazol-5-yl)pyrimidin-2-yl)propan-2-yl hexadecyl phosphate], the Ki on S. aureus DNA gyrase was 13 nM; on S. aureus TopoIV enzyme (setting [1]) it was 24 nM. In “Aqueous Solubility Study”, the solubility at 96 h was < 0.001 mg/mL.
